Earlier results, collected in paper PMC4019989 (Clinical cancer research : an official journal of the …, 2009).

System: animals
Conditions: cited from earlier work

SMILES: CC(C)C[C@H](NC(=O)[C@H](Cc1ccccc1)NC(=O)c1cnccn1)B(O)O [bortezomib]
- Toxicity of consecutive-day dosing: excessive toxicity
